Test results published in patent US11401243B2, “Quinoline derived small molecule inhibitors of nicotinamide N-methyltransferase (NNMT) and uses thereof” (priority 2017, dated 2022).
Entries after “also recorded” stand apart in the source; their conditions may differ. Read-outs that look alike come from different tables or passages of the source.

Key:
[1] = molecular target: T1, human NNMT (mt-hNNMT) (Homo sapiens, UniProt P40261, E101A/E103A/K100A); conditions: values from applicant's published SAR study; read-out: IC50 (NNMT inhibition); cited from earlier work
T1 sequence (P40261 1-261 K100A/E101A/E103A limits assumed): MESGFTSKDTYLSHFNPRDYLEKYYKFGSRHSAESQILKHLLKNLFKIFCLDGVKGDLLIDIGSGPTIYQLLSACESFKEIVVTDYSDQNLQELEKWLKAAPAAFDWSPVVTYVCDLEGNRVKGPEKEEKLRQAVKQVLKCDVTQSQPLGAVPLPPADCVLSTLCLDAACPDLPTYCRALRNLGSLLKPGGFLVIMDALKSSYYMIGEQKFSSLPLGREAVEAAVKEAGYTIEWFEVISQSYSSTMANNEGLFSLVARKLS

[2] = test system: NNMT activity in 3T3-L1 pre-adipocytes and differentiated adipocytes; assay: Quantitative measurement of NNMT reaction product 1-MNA in cultured cells (LC/MS/MS); assay type: cell-based; conditions: 10 μM, 24 h
Description: Differentiation of 3T3-L1 pre-adipocytes. […] Briefly, standard culture media was supplemented with scheduled addition of adipogenic agents [3-isobutyl-1methyl xanthine (IBMX), Sigma Aldrich; MO, USA), dexamethasone (Sigma Aldrich; MO, USA), insulin (Gibco Life Technologies Inc.; Grand Island, N.Y., USA)] over 10 days to promote differentiation of 3T3-L1 fibroblasts into adipocytes; a combination of 1 mM IBMX, 1 μM dexamethasone, and 10 μg/ml of insulin in media were added to fully confluent 3T3-L1 fibroblasts for three days (days 0-3) to initiate differentiation. At day 3, the media was replaced with culture media supplemented with insulin (10 μg/ml). After day 6, cells were maintained in culture media until described experiments were begun (days 8-10).
Cellular 1-MNA concentrations were determined using an ultra-sensitive high-resolution AB Sciex 6500 Q-trap mass spectrometer coupled to an Agilent 1260 ultra-high pressure liquid chromatography (LC/MS/MS) system. Using multiple reaction monitoring (MRM) positive ion mode, the 1-MNA NNMT reaction product was quantified from peak area ratios using AB Sciex Analyst and MultiQuant 2.1 software and the parent precursor and Q3 masses set to m/z 137.1 and 94.1, respectively. Fragment ions at m/z of 92.1 and 77.9 were additionally used for the detection and confirmation of 1-MNA, respectively. […]. To determine the effect of NNMT inhibitor on NNMT activity in the pre-adipocytes and differentiated adipocytes (8×10^4 cells/well seeded prior to beginning differentiation), cells were treated with 30 μM inhibitor for 24 h. Similarly, to compare the relative effects of multiple NNMT inhibitors on NNMT activity in cultured adipocytes, differentiated adipocytes in 6-well plates were treated with 10 μM test compound for 24 h. Following treatment, media was replaced with 80% (v/v) methanol (cooled to −80° C.) containing 500 nmol 6-chloronicotinamide (6-CN) as an internal standard (IS) to extract cellular metabolites. Adherent cells were scrapped, then centrifuged at 4° C. and 13000 g for 15 min, and the resulting supernatants processed using established protocols. […]. Data were subsequently normalized to the IS peak area and transformed as % control values for cross-sample comparisons. […] Choice of inhibitor concentrations and time period was chosen based on the results from the MTT studies.

[3] = Parallel artificial membrane permeability assay (PAMPA); assay type: in vitro ADME; conditions: for Papp at 4 h, 400 μM: 400 μM in PBS, room temperature, read-out: Flux; for Permeability Classification (passive transport): BCS classification
Description: Samples were tested in triplicates in three separate experiments.

[4] = molecular target: recombinant human PRMT3 enzyme (Homo sapiens, UniProt O60678); assay: PRMT3 activity assay (radiometric); assay type: biochemical; conditions: 10 nM to 200 μM (1,8-diMQ) or 600 μM (5-amino-1MQ)
Excerpt: Test compounds were screened in biochemical assays for activity against three structurally similar methyltransferases, including catechol-O-methyltransferase (COMT), DNA (cytosine-5)-methyltransferase 1 (DNMT1), and protein arginine methyltransferase 3 (PRMT3). Additional biochemical assays were used to test the ability of compounds to inhibit nicotinamide phosphoribosyl transferase (NAMPT) and NAD+-dependent protein deacetylase sirtuin 1 (SIRT1), two enzymes in the NAD+ biosynthesis/salvage pathway. All assays were performed by Reaction Biology Corporation (RBC; Malvern, Pa., USA) and complete assay details are noted below. For each test compound, IC50 values were calculated from dose-response curves established with 10 concentrations of a half-log dilution series. For each assay, established enzyme specific inhibitors were included as positive controls for enzyme function and assay reproducibility. IC50 values were determined by non-linear least-squares fitting of a 4-parameter dose-response curve to collected data points (Graphpad Prism 7.0; La Jolla, Calif., USA).
PRMT3 activity assay. […] The analogues, 1,8-diMQ and 5-amino-1MQ were tested at concentrations from 200 μM-10 nM and 600 μM-10 nM, respectively. Reactions were performed with 5 μM histone H3 (histone L-arginine) substrate, 1 μM radiolabeled S-adenosyl-L-[methyl-3H]methionine (SAM) co-substrate, and recombinant human PRMT3 enzyme. Activity was monitored via quantification of radiolabeled reaction product histone [methyl-3H]-L-arginine.

[5] = test system: Caco-2 cells; assay: Bi-directional permeability assay with Caco-2 cells
[6] = as above; conditions: human, Caco-2, pH 7.4
[7] = molecular target: T1, human NNMT (mt-hNNMT); assay: NNMT activity assay (HPLC-UV detection of MNA), NNMT IC50 curves; conditions: NNMT Inhibition IC50, mean ± SD of duplicate or triplicate measurements; NI = no observable inhibition
[8] = molecular target: T2, recombinant human COMT enzyme (Homo sapiens, UniProt P21964); assay: COMT activity assay (radiometric); assay type: biochemical; conditions: maximal tested concentration 200 μM
T2 construct: Reaction Biology Corporation (ran the assay)
T2 sequence (P21964 1-271): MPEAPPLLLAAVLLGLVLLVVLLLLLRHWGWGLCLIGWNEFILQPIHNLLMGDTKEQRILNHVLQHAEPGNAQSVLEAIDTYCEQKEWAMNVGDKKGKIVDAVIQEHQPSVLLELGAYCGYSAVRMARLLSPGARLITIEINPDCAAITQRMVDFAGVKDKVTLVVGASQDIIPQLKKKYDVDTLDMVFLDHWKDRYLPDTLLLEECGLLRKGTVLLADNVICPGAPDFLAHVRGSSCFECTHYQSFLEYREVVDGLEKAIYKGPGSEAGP

[9] = molecular target: recombinant human DNMT1 enzyme (Homo sapiens, UniProt P26358); assay: DNMT1 activity assay (radiometric); assay type: biochemical
recombinant human DNMT1 enzyme, sequence (P26358 whole entry): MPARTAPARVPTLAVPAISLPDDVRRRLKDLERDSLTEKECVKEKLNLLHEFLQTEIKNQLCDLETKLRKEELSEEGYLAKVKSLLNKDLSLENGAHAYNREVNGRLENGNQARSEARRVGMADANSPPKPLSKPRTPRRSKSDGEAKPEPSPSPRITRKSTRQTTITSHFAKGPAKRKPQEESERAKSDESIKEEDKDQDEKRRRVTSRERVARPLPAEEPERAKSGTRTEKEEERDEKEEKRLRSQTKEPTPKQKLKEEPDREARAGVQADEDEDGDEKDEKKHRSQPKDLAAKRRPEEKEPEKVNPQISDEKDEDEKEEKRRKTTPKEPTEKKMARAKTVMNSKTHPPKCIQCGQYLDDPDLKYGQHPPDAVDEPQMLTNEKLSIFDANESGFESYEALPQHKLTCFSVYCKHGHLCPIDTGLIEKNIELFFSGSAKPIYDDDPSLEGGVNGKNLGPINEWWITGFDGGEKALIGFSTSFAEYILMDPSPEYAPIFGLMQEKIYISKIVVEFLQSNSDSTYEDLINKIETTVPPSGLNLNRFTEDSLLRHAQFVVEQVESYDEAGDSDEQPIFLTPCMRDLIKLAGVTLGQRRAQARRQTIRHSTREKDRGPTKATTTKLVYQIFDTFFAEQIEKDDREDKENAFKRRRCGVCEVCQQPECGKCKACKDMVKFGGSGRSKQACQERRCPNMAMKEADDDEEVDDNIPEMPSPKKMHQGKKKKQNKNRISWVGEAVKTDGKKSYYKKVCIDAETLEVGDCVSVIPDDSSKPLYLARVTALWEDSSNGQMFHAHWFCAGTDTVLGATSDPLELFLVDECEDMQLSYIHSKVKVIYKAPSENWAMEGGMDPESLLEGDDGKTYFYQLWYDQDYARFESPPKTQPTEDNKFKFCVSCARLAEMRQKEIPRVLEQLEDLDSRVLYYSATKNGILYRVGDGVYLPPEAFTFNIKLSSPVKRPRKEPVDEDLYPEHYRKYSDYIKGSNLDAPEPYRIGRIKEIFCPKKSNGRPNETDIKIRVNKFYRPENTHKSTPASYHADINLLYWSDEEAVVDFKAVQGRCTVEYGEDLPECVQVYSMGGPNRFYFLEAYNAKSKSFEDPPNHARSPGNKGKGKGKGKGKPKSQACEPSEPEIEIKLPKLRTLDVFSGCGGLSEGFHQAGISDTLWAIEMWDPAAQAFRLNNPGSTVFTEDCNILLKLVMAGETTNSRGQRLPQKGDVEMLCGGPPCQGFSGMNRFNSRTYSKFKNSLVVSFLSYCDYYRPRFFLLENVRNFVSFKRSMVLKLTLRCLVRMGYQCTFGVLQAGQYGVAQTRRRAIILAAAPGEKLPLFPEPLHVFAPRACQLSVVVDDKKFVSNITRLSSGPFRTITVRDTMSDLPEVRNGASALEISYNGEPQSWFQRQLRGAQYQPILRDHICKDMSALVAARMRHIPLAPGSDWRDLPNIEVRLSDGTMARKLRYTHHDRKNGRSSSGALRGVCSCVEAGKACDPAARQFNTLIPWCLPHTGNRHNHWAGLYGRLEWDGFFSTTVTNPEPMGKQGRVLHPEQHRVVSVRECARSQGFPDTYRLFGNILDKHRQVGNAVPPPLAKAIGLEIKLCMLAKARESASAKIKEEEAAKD

recombinant human PRMT3 enzyme, sequence (O60678 whole entry): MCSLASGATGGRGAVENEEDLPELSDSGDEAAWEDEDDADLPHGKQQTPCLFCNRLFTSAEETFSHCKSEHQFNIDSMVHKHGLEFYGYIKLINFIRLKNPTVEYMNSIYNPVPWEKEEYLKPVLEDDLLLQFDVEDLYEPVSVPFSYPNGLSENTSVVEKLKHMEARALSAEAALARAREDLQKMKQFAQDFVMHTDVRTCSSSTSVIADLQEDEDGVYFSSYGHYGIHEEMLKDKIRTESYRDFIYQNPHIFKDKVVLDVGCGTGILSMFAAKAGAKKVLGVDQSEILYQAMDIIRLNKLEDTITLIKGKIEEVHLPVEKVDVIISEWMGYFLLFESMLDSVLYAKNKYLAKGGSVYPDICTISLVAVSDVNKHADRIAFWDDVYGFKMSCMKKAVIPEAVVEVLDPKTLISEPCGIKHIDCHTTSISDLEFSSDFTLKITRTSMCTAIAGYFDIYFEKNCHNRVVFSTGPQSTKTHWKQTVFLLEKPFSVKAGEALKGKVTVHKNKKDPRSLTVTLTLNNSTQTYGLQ

SMILES | IC50 [1] | 1-MNA levels in differentiated adipocytes relative to control [2] | Papp at 4 h, 400 μM [3] | Permeability Classification (passive transport) [3] | inhibition of PRMT3 (in words) [4] | Mean A→B Papp ([5]; Caco-2, 10 μM, 2 h, pH 7.4, BLQ = no peak detected in receiver side) | Classification (active transport / efflux) ([5]; Caco-2, listed as 1,8-diMQ) | Papp B→A at 2 h, 10 μM [6] | IC50 [7] | inhibition at 200 µM [8] | Permeability Classification (passive transport) ([3]; listed as 1,8-diMQ) | inhibition of DNMT1 (in words) ([9]; 10 nM to 200 μM (1,8-diMQ) or 600 μM (5-amino-1MQ)) | IC50 ([9]; read-out: IC50, DNA (cytosine-5)-methyltransferase 1, NI: no inhibition)
Cc1cc(C)[n+](C)c2c(C)cccc12 [1,2,4,8-tetraMQ] | 109 µM | did not significantly decrease | 0.698 ×10⁻⁶ cm/s | low, but non-zero, permeability; also recorded: Low permeability |  |  |  |  |  |  |  |  | 
Cc1cccc2ccc[n+](C)c12 [1q] |  |  | 0.864 ×10⁻⁶ cm/s |  | did not inhibit | BLQ | very low bi-directional transport; also recorded: Low permeability | 1.78 ×10⁻⁶ cm/s | 1.8 ± 0.5 µM | 20% | low, but non-zero, permeability; also recorded: Low permeability | did not inhibit | > 200 µM
